{"source": "patent US11492321B2", "about": "“Method for producing capped 3-hydroxycarboxylic acids and their salts and esters” (IOI Oleo GmbH, priority 2019, dated 2022)", "key": {"[1]": {"conditions": "even if several grams are taken; patients; cited from earlier work"}, "[2]": {"assay": "Cleavage experiments in FaSSGF medium simulating the stomach", "format": "in vitro ADME", "conditions": "in the presence or absence of pancreatin", "description": "(§1) By means of cleavage experiments it is shown that reaction products prepared according to the invention or mixtures thereof can be cleaved in the human gastrointestinal tract. The starting mixture used is, on the one hand, a 3-acetoxybutyric acid ethyl ester obtained and purified by the process according to the invention as described hereinabove and, on the other hand, in each case the 3-BHB ethyl esters capped in the 3-position with the carboxylic acid anhydride (heptanoic acid anhydride, lauric acid anhydride or oleic acid anhydride) obtained and purified by the process according to the invention as described hereinabove.\n(§2) For the cleavage experiments under near-body conditions two media are investigated: • FaSSGF, which simulates the stomach • FaSSIF, which simulates the intestinal tract\n(§3) Both media are from the company Biorelevant®, Ltd. in Great Britain. In addition, in some experiments porcine pancreas is added (Panzytrat® 40,000, Fa. Allergan).\n(§4) Under FaSSIF conditions, a lower conversion using Panzytrat® takes place."}, "[3]": {"assay": "Cleavage experiments in FaSSIF medium simulating the intestinal tract", "format": "in vitro ADME", "conditions": "in the presence or absence of pancreatin", "description": "as §1, §2, §3, §4"}}, "data": [{"smiles": "CC(O)CC(=O)O", "note": "(stereo not drawn) [3-hydroxybutyric acid]", "values": [{"measurement": "duration of ketosis", "setting": "[1]", "value": "three to four"}]}, {"smiles": "CCOC(=O)CC(C)OC(C)=O", "note": "(stereo not drawn) [3-acetoxybutyric acid ethyl ester]", "values": [{"measurement": "cleavage in gastric medium", "setting": "[2]", "value": "cleavage to 3-BHB in free form"}, {"measurement": "cleavage in intestinal medium", "setting": "[3]", "value": "cleavage to 3-BHB in free form"}]}]}
